In patent US20230390287A1, “MODULATORS OF PD-L1/PD-1 INTERACTION AND USES THEREOF” (Ramot at Tel-Aviv University Ltd., priority 2021, published 2023):
Entries after “also recorded” stand apart in the source; their conditions may differ.

How the values were obtained:
[1] = test system: patient-derived tumor cells and autologous PBMC (CD8+ T cells); experiment: Co-culture of patient-derived PBMC and autologous tumor cells; format: cell-based, human; settings: 72 hours of co-culture; 7 patients
Protocol: Tumor—Lymphocyte Co-Culture:
One day before co-culture, PBMC were re-suspended in RPMI-1640 supplemented with 150 U/ml IL-2 (Peprotech) and cultured overnight at 37° C. Prior to co-culture, tumor cells were stimulated overnight with 200 ng/ml human recombinant IFN-γ (Peprotech). The next day, tumor cells were scraped to single cells and re-suspended in RPMI. PBMC were seeded at a density of […] and stimulated with single cell-dissociated tumor cells at a 2:1 Effector:Target ratio. Co-cultures were performed in the presence of 150 U/ml IL-2 (Peprotech), 5 μg/ml of anti-CD28 (BioxCell) and αPD-L1 blocking antibody or small-molecule inhibitor for 72 hours. The cells were then stained with fluorochrome-labeled antibodies and analyzed using an LSR Fortessa (BD Biosciences) and FlowJo software. […]
The PBMC and tumor cells were co-cultured and treated with anti-CD28 (blue) and PD-L1 inhibitors (small-molecule inhibitor Compound 69 (yellow) and anti-PD-L1 (red)) for 72 hours. The PD-1/PD-L1 inhibition and T-cell activation were assessed using flow cytometry, and the obtained data is shown in FIGS. 8B-E. The anti-PD-L1 (αPD-L1) was added as the relevant control for PD-L1 inhibition.

[2] = test system: PD-1/PD-L1 interaction on MDA-MB-231 cells; experiment: Cell-based PD-1/PD-L1 inhibition (accessible PD-L1 by flow cytometry), MDA-MB-231; set-up: species or system human; settings: Homo sapiens, 72 hours
Protocol: PD-1/PD-L1 Inhibition on Human Melanoma and Breast Cancer Cell Lines:
Cells (0.1×10^6 cells) were tested for PD-1/PD-L1 inhibition by co-incubation of hit compounds, DMSO (background), BMS-202 (Selleckchem) and anti-human PD-L1 (BioxCell, Clone 29E.2A3) (positive controls) for 72 hours in 2 ml DMEM medium. Non-confluent cell cultures were scraped into single-cell suspension, washed with PBS, and counted. Cells were subsequently stained with PD-1 fluorescent proxy for 30 minutes at 4° C., washed twice and resuspended in FACS buffer. Cells were analyzed using BD LSRFortessa (BD Biosciences) and data analyzed with FlowJo software for Mac (FlowJo, LLC 2013-2016). Mean fluorescence intensity (MFI) was derived from each sample. The PD-1/PD-L1 inhibition in cells was measured by a decrease in MFI relative to background.
The selected cell lines were incubated with the selected compounds to assess compound-binding affinities, and consequently PD-1/PD-L1 inhibition. The levels of remaining accessible PD-L1 in these cells were evaluated by FACS analysis using a fluorescence PD-1 proxy. To understand compound activity, different incubation times (24, 48 and 72 hours) were evaluated on MDA-MB-231 breast cancer cell line.
The remaining accessible PD-L1 was determined by flow cytometry.

[3] = test system: patient-derived melanoma (Mel4) spheroids with autologous PBMC; experiment: 3D patient-derived melanoma spheroid - PBMC co-culture; format: cell-based, human; settings: vs αPD-L1 and untreated
Protocol: 3D Patient-Derived Tumor Spheroids—Lymphocyte Co-Culture:
After isolation of tumor cells, cells were washed and cultured for up to 3 days. This allowed the isolation of adherent cells that were then scrapped and seeded in Nunclon Sphera 96-well plate (Thermo Fisher Scientific) to create a unique uniform spheroid in each well. Spheroids were ready on day 2-5. Thereafter, spheroids were embedded in reduced growth Matrigel (Corning) with PBMC (1:100) and were left untreated or were treated with the small-molecule inhibitor Compound 69 or αPD-L1, dissolved in the appropriate cell culture medium.
3D co-culture was fixed with 4% paraformaldehyde and blocked by PBS with 2% (m/v) BSA. Thereafter, the samples were incubated with CD8 (MA5-16345—Invitrogen) (1:50) in PBS with 1% (v/v) Tween® 20 for 18 hours at 4° C. Then, 4 μg/ml of secondary antibody (A-11008, Invitrogen) were added, 3D spheroids were stained with Hoechst 33342 (10 μg/ml) for 20 minutes. […] The different z-stacks were merged and analyzed by Fiji-ImageJ.
The ability of PD-1/PD-L1 inhibitors (small-molecule inhibitor Compound 69 and αPD-L1) to promote CD8^+ T-cell infiltration into the tumor site was evaluated using a 3D co-culture system. […] The CD8^+ T-cell infiltration (green) was evaluated after 72 hours of co-culture by confocal microscopy. […]

## CCCCCN(CCCCC)C(C)C(=O)c1cc(C)c2ccc3cc(C(C)C)ccc3c2c1.Cl (centres unmarked) [Compound 69]
[1]
  CD107a upregulation in CD8+ T cells: induced
  IFN-γ secretion in CD8+ T cells: induced
[2]
  IC50: 1 µM
[3]; 72 hours of co-culture
  CD8+ T cell infiltration within the tumor spheroid: higher CD8^+ T cell infiltration
[3]; Mel4 spheroids
  sprouting of patient-derived melanoma cells: inhibited the melanoma cells sprouting; also recorded: strongly inhibited the sprouting
